These results are taken from publication PMC3753695 (Neuron, 2013).

Molecules are shown by their SMILES.

In this test the target is T1, OBP49a (Drosophila melanogaster, UniProt A1Z947).
T1 sequence (A1Z947 23-212): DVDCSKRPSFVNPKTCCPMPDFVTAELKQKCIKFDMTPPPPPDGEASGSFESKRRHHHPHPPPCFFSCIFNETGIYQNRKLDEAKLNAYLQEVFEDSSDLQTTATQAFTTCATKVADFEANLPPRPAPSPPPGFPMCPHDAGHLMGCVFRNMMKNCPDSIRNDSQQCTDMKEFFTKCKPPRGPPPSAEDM
The experiment in a line: surface plasmon resonance. To be noted: pH 7.4; 25 °C; HBS-P (10 mM HEPES, 150 mM NaCl, 0.005 % Surfactant P20); dose-dependent. It is filed as binding. On the technique in general: SPR reads the build-up and loss of mass on a sensor chip optically.
With `COc1ccc2cc3[n+](cc2c1OC)CCc1cc2c(cc1-3)OCO2` [berberine], the “surface plasmon resonance (BIAcore 3000, OBP49a on CM5 chip)” value (shortened to “surface plasmon resonance”) was “berberine, denatonium and quinine bound to OBP49a in a dosedependent manner”.
`CC[N+](CC)(CC(=O)Nc1c(C)cccc1C)Cc1ccccc1` [denatonium]: the “surface plasmon resonance” value was “berberine, denatonium and quinine bound to OBP49a in a dosedependent manner”.
Take `C=C[C@H]1CN2CC[C@H]1C[C@H]2[C@H](O)c1ccnc2ccc(OC)cc12` [quinine]: the “surface plasmon resonance” value is “berberine, denatonium and quinine bound to OBP49a in a dosedependent manner”.
